Activity calls are given as the source filed them. The calls are words filed in the database; no cut-off is given here.
Columns and labels:
A549 = assay: Cytotoxicity against human A549 cells assessed as cell growth inhibition measured after 24 hrs by MTT assay; assay type: functional, cell-based; conditions: A549, 24 h
MCF7 = assay: Cytotoxicity against human MCF7 cells assessed as cell growth inhibition measured after 24 hrs by MTT assay; assay type: functional, cell-based; conditions: MCF7, 24 h
HepG2 [1] = assay: Cytotoxicity against human HepG2 cells assessed as cell growth inhibition measured after 24 hrs by MTT assay; assay type: functional, cell-based; conditions: HepG2, 24 h
L02 = assay: Cytotoxicity against human L02 cells assessed as cell growth inhibition measured after 24 hrs by MTT assay; assay type: cell-based; conditions: L02, 24 h
HepG2 [2] = assay: Cell cycle arrest in human HepG2 cells assessed as accumulation at G0/G1 phase at 4 uM measured after 24 hrs by RNaseA/propidium iodide staining based flow cytometry (reference value: 49.3 %); assay type: functional
HepG2 [3] = assay: Cell cycle arrest in human HepG2 cells assessed as accumulation at S phase at 4 uM measured after 24 hrs by RNaseA/propidium iodide staining based flow cytometry (reference value: 24.3 %); assay type: functional
HepG2 [4] = assay: Cell cycle arrest in human HepG2 cells assessed as accumulation at G2/M phase at 4 uM measured after 24 hrs by RNaseA/propidium iodide staining based flow cytometry (reference value: 22.9 %); assay type: functional
HepG2 [5] = assay: Cell cycle arrest in human HepG2 cells assessed as accumulation at G0/G1 phase at 8 uM measured after 24 hrs by RNaseA/propidium iodide staining based flow cytometry (reference value: 49.3 %); assay type: functional
HepG2 [6] = assay: Cell cycle arrest in human HepG2 cells assessed as accumulation at S phase at 8 uM measured after 24 hrs by RNaseA/propidium iodide staining based flow cytometry (reference value: 24.3 %); assay type: functional
HepG2 [7] = assay: Cell cycle arrest in human HepG2 cells assessed as accumulation at G2/M phase at 8 uM measured after 24 hrs by RNaseA/propidium iodide staining based flow cytometry (reference value: 22.9 %); assay type: functional
HepG2 [8] = assay: Induction of apoptosis in human HepG2 cells assessed as discernible cell rounding at 4 to 8 uM by fluorescent microscopic analysis; assay type: functional, cell-based; conditions: dose 4-8 µM
HepG2 [9] = assay: Induction of apoptosis in human HepG2 cells assessed as cell shrinkage at 4 to 8 uM by fluorescent microscopic analysis; assay type: functional, cell-based; conditions: dose 4-8 µM
HepG2 [10] = assay: Induction of apoptosis in human HepG2 cells assessed as membrane blebbing at 4 to 8 uM by fluorescent microscopic analysis; assay type: functional, cell-based; conditions: dose 4-8 µM
HepG2 [11] = assay: Induction of apoptosis in human HepG2 cells assessed as formation of apoptotic bodies at 4 to 8 uM by fluorescent microscopic analysis; assay type: functional, cell-based; conditions: dose 4-8 µM
HepG2 [12] = assay: Induction of apoptosis in human HepG2 cells assessed as live cells at 4 uM measured after 24 hrs by annexinV-FITC/propidium iodide staining based flow cytometry (reference value: 91.7 %); assay type: functional
HepG2 [13] = assay: Induction of apoptosis in human HepG2 cells assessed as early apoptotic cells at 4 uM measured after 24 hrs by annexinV-FITC/propidium iodide staining based flow cytometry (reference value: 2.03 %); assay type: functional
HepG2 [14] = assay: Induction of apoptosis in human HepG2 cells assessed as late apoptotic cells at 4 uM measured after 24 hrs by annexinV-FITC/propidium iodide staining based flow cytometry (reference value: 5.45 %); assay type: functional
HepG2 [15] = assay: Induction of apoptosis in human HepG2 cells assessed as necrotic cells at 4 uM measured after 24 hrs by annexinV-FITC/propidium iodide staining based flow cytometry (reference value: 0.77 %); assay type: functional
HepG2 [16] = assay: Induction of apoptosis in human HepG2 cells assessed as live cells at 8 uM measured after 24 hrs by annexinV-FITC/propidium iodide staining based flow cytometry (reference value: 91.7 %); assay type: functional
HepG2 [17] = assay: Induction of apoptosis in human HepG2 cells assessed as early apoptotic cells at 8 uM measured after 24 hrs by annexinV-FITC/propidium iodide staining based flow cytometry (reference value: 2.03 %); assay type: functional
HepG2 [18] = assay: Induction of apoptosis in human HepG2 cells assessed as late apoptotic cells at 8 uM measured after 24 hrs by annexinV-FITC/propidium iodide staining based flow cytometry (reference value: 5.45 %); assay type: functional
HepG2 [19] = assay: Induction of apoptosis in human HepG2 cells assessed as necrotic cells at 8 uM measured after 24 hrs by annexinV-FITC/propidium iodide staining based flow cytometry (reference value: 0.77 %); assay type: functional

| Structure (SMILES) | IC50 (A549) [µM] | IC50 (MCF7) [µM] | IC50 (HepG2 [1]) [µM] | IC50 (L02) [µM] | other results |
| --- | --- | --- | --- | --- | --- |
| C[C@@H]1CC[C@@]2(OC1)O[C@H]1C[C@H]3[C@@H]4CC=C5C[C@@H](OC(=O)CCC(=O)N6CC[N+](Cc7ccccc7)(Cc7ccccc7)CC6)CC[C@]5(C)[C@H]4CC[C@]3(C)[C@H]1[C@@H]2C | 2.9 | 9.4 | 6.4 | 18.7 |  |
| Cc1ccc(C[N+]2(Cc3ccc(C)cc3)CCN(C(=O)CCC(=O)O[C@H]3CC[C@@]4(C)C(=CC[C@H]5[C@@H]6C[C@@H]7O[C@]8(CC[C@@H](C)CO8)[C@@H](C)[C@@H]7[C@@]6(C)CC[C@@H]54)C3)CC2)cc1 | 3.6 | > 10 | 6.1 | 18.4 |  |
| C[C@@H]1CC[C@@]2(OC1)O[C@H]1C[C@H]3[C@@H]4CC=C5C[C@@H](OC(=O)CCC(=O)N6CC[N+](Cc7ccc(C(C)(C)C)cc7)(Cc7ccc(C(C)(C)C)cc7)CC6)CC[C@]5(C)[C@H]4CC[C@]3(C)[C@H]1[C@@H]2C | 3 | 6 | 6.7 | 21.2 |  |
| C=CS(=O)(=O)N1CCN(C(=O)CCC(=O)O[C@H]2CC[C@@]3(C)C(=CC[C@H]4[C@@H]5C[C@@H]6O[C@]7(CC[C@@H](C)CO7)[C@@H](C)[C@@H]6[C@@]5(C)CC[C@@H]43)C2)CC1 | 4.1 | > 10 | 5.1 | 23.6 |  |
| C[C@@H]1CC[C@@]2(OC1)O[C@H]1C[C@H]3[C@@H]4CC=C5C[C@@H](OC(=O)CCC(=O)N6CCOCC6)CC[C@]5(C)[C@H]4CC[C@]3(C)[C@H]1[C@@H]2C | 3.2 | > 10 | 10.4 | 34.3 |  |
| C[C@@H]1CC[C@@]2(OC1)O[C@H]1C[C@H]3[C@@H]4CC=C5C[C@@H](OC(=O)CCCC(=O)N6CCNCC6)CC[C@]5(C)[C@H]4CC[C@]3(C)[C@H]1[C@@H]2C | 3.2 | 6 | 2 | 14.8 |  |
| C[C@@H]1CC[C@@]2(OC1)O[C@H]1C[C@H]3[C@@H]4CC=C5C[C@@H](OC(=O)c6ccccc6C(=O)N6CCNCC6)CC[C@]5(C)[C@H]4CC[C@]3(C)[C@H]1[C@@H]2C | 7.2 | 8.1 | 7.5 | 27.8 |  |
| C[C@@H]1CC[C@@]2(OC1)O[C@H]1C[C@H]3[C@@H]4CC=C5C[C@@H](OC(=O)CCC(=O)N6CCNCC6)CC[C@]5(C)[C@H]4CC[C@]3(C)[C@H]1[C@@H]2C | 2.4 | 2.8 | 1.9 | 18.6 | Activity (HepG2 [2]): 57.4%; Activity (HepG2 [3]): 21.5%; Activity (HepG2 [4]): 18.6%; Activity (HepG2 [5]): 64.2%; Activity (HepG2 [6]): 17.5%; Activity (HepG2 [7]): 17.3%; Activity (HepG2 [8]): Active; Activity (HepG2 [9]): Active; Activity (HepG2 [10]): Active; Activity (HepG2 [11]): Active; Activity (HepG2 [12]): 88.7%; Activity (HepG2 [13]): 6.08%; Activity (HepG2 [14]): 5.12%; Activity (HepG2 [15]): 0.093%; Activity (HepG2 [16]): 78.7%; Activity (HepG2 [17]): 13.2%; Activity (HepG2 [18]): 7.85%; Activity (HepG2 [19]): 0.18% |
| COc1ccc(C[N+]2(Cc3ccc(OC)cc3)CCN(C(=O)CCC(=O)O[C@H]3CC[C@@]4(C)C(=CC[C@H]5[C@@H]6C[C@@H]7O[C@]8(CC[C@@H](C)CO8)[C@@H](C)[C@@H]7[C@@]6(C)CC[C@@H]54)C3)CC2)cc1 | 5.7 | 9.3 | 9.9 | 23.3 |  |

— ChEMBL document CHEMBL4811221, “Diosgenin Derivatives as Potential Antitumor Agents: Synthesis, Cytotoxicity, and Mechanism of Action” (J Nat Prod, 2021)
